Results reported in patent US20240285557A1, “PHARMACEUTICAL COMPOSITION COMPRISING LIPASE INHIBITOR FOR TREATMENT OR TREATMENT OF RNA VIRAL INFECTIONS” (priority 2021, published 2024).

Columns and labels:
[1] = system: SARS-COV-2, IAV, BCOV, PEDV, RVA, PRRSV, and PSaV; experiment: Viral genome copy (real-time PCR) and progeny virus production in cells infected with seven RNA viruses; assay type: cell-based; conditions: 1, 10, and 20 μM; dose-dependent, all seven viruses
From the text: Subsequently, each well was washed three times with phosphate-buffered saline, followed by the addition of the respective viral culture media.
Subsequently, each plate underwent three cycles of freezing and thawing to detach the cells from each well for subsequent experiments.
To analyze the inhibitory effects of atglistatin and CAY10499 on the genome copies of each virus, RNA was extracted using the RNeasy mini kit (Qiagen). The extracted RNA was then used to synthesize cDNA using the TOPscript™ cDNA Synthesis kit (Enzynomics), which includes random hexamer and poly(rA)-oligo(dT). Afterward, real-time PCR was performed on the synthesized cDNA in the TOPreal™ qPCR 2× PreMix (Enzynomics) solution in the presence of specific primers for SARS-COV-2 nucleocapsid (N), influenza A virus PB1, bovine coronavirus spike (S), porcine epidemic diarrhea coronavirus nucleocapsid (N), bovine species A rotavirus VP6, porcine reproductive and respiratory syndrome virus matrix (M), and porcine sapovirus VPg, using the LineGene 9600 Plus Real-time PCR detection system (Bioer, Hangzhou, China).
To analyze the inhibitory effects of atglistatin and CAY10499 on the production of progenies of the viruses, the supernatant obtained after three cycles of freezing and thawing was serially ten-fold diluted. […] After adsorption, each well was washed twice with phosphate-buffered saline (pH 7.4), followed by the addition of the respective culture media.
Then, after removal of the supernatants, the cells were fixed with 4% paraformaldehyde for 15 minutes and each well was washed thrice with phosphate-buffered saline and treated with 0.2% Triton X-100 at 20° C. for 10 minutes.
After three washes with phosphate-buffered saline, the wells were treated with 100- to 200-fold diluted primary antibodies to the spike protein of SARS-COV-2, the nucleoprotein protein of influenza A virus, the spike protein of bovine coronavirus, the nucleocapsid protein of porcine epidemic diarrhea coronavirus, the VP6 protein of bovine species A rotavirus, the matrix protein of porcine reproductive and respiratory syndrome virus, and the VPg protein of porcine sapovirus, respectively, and applied to a refrigerator at 4° C. for 12 hours.
Subsequently, the supernatant was removed, and each well was washed thrice with phosphate-buffered saline, followed by incubation with a 100- to 200-fold dilution of a secondary antibody conjugated with Alexa Fluor 488 or fluorescein isothiocyanate at room temperature for 2 hours.
Each virus was allowed to adsorb onto the cells which were then cultured in a freshly changed medium containing DABPU-EM or DABPU-DE. Thereafter, the cells were detached from the wells for subsequent experiments.

[2] = system: bovine species A rotavirus NCDV strain; experiment: Viral antigen expression (Western blot, immunofluorescence) in infected MA104 cells; assay type: cell-based; conditions: rotavirus VP6 protein, 1, 10, 20 μM
[3] = system: influenza A virus PR8 strain; experiment: Influenza A virus-infected mice treated with lipase inhibitor; assay type: in vivo, C57BL/6J mice
Method: For use in verifying the antiviral effect of lipase inhibition in animals infected with influenza A virus, 150 mg/ml of atglistatin and 150 mg/ml of CAY10499 were dissolved in DMSO. To evaluate the antiviral effect depending on the concentration, the drugs were prepared at concentrations of 1.000, 0.500, 0.100, 0.010, and 0.001 mg/ml. […] The drugs were completely dissolved by vortexing.
For evaluating the antiviral efficacy of CAY10499, mouse groups were prepared in the same manner with the exception of using CAY10499 instead of atglistatin.
Influenza A virus inoculation was carried out on anesthetized mice via an intranasal route at 1,000 PFU per mouse, following the same procedure as above. In cases where the virus was not injected, only phosphate-buffered saline was administered. Observations were made for 15 days, during which survival rates, body weight, and clinical symptoms were monitored and recorded daily. […] Drug treatment began two days after the inoculation of influenza A virus.
The survival rate, which was 100% with a 0% mortality rate on day 0 of the infection, was measured daily over 15 days, and compared with the survival rate of the virus-injected and untreated group. Statistical significance was analyzed using the Log Rank Test, with a p value of 0.05 or […] considered significant.
Each group consisted of four seven-week-old female wild-type C57BL/6J mice, acclimatized for one week, and used in the experiment at eight weeks of age.
Mice were inoculated with influenza A virus PR8 strain in the same manner as described above, and drug treatment was conducted for 4 days, starting from the second day post-infection. On the sixth day post-infection, the mice were euthanized for autopsy.
These tissues were assayed for free fatty acid levels.
To evaluate lipid droplets and influenza A virus antigen in the lung tissues, the fixed tissues were prepared into 3-μm-thick frozen sections. […] After washing, the sections were mounted with Slow-Fade Gold antifade reagent for nucleus staining.
The sections were then finely cut at 3 μm thickness, deparaffinized in xylene, and rehydrated through graded alcohols and water. […] Histological examination was then performed using an optical microscope.
Immunohistochemistry was performed for influenza A virus antigens in the lung tissue.

[4] = system: SARS-COV-2 strain KCDC03, KDCA51463, or KDCA55905; experiment: Proliferation of SARS-CoV-2 in various cultured cells; assay type: cell-based; conditions: Vero E6, Caco-2, Calu-3 cells (FIGS. 21a to 21f); vs solvent (vehicle)
[5] = system: influenza A virus PR8 strain; experiment: Proliferation of influenza A virus in MRC-5, NCI-H293, WI-38, and Calu-3 cells; assay type: cell-based; conditions: MRC-5, NCI-H293, WI-38, Calu-3 cells; 1, 10, 20 μM; vs solvent (vehicle)
[6] = system: Influenza A virus (H1N1) (PR8); conditions: Influenza A virus (H1N1) (PR8)
[7] = system: Bovine coronavirus (KWD20); conditions: Bovine coronavirus (KWD20)
[8] = system: Porcine epidemic diarrhea coronavirus (QIAP1401); conditions: Porcine epidemic diarrhea coronavirus (QIAP1401)
[9] = system: Species A Rotavirus (NCDV); conditions: Species A Rotavirus (NCDV)
[10] = system: Porcine respiratory reproductive syndrome virus (LMY); conditions: Porcine respiratory reproductive syndrome virus (LMY)
[11] = system: Porcine sapovirus (Cowden); conditions: Porcine sapovirus (Cowden)
SARS-CoV-2 (KCDC03) = experiment: Half-maximal viral inhibitory concentration (IC50), immunofluorescence of virus-positive cells
[12] = 5 mg/kg/day for 4 days, sixth day post-infection
[13] = 5 mg/kg/day, vs untreated virus-inoculated group

Q: Which “copies of genomes of each virus” value [1] does the source give for CCN(C)C(=O)Nc1cccc(-c2ccc(N(C)C)cc2)c1 [DABPU-EM, 3-(4′-(dimethylamino)-(1,1′-biphenyl)-3-yl)-1-ethyl-1-methylurea] here?
A: Its value is “reduced”.

Q: What about the “production of progenies of each virus” value [1] of the same compound?
A: Its value is “reduced”.

Q: And the “expression levels of the viral antigen in infected cells” value [2]?
A: Its value is “inhibitory activity”.

Q: And the “free fatty acids and glycerol concentrations in lung tissues” value [3, 12]?
A: Its value is “significantly reduced”.

Q: What about the “progeny virus numbers in lung tissues” value [3, 12] of the same compound?
A: The value was “significantly reduced”.

Q: What about the “virus gene numbers in lung tissues” value [3, 12] of the same compound?
A: Its value is “significantly reduced”.

Q: What about the “lung lesions, including interstitial pneumonia, and number of virus-positive cells” value [3, 13] of the same compound?
A: The value was “alleviation and reduction”.

Q: What about the “number of lipid droplets in bronchiolar epithelial cells” value [3, 13] of the same compound?
A: The value was “no significant decrease”.

Q: And the “viral antigen in the bronchiolar epithelial cells” value [3, 13]?
A: Its value is “significantly decreasing”.

Q: And the survival rate ([3]; 10 mg kg^−1 day^−1 intraperitoneally for four days from day 2 post infection, 15 days observation, control 100% mortality)?
A: The survival rate was 50%.

Q: What about the “survival rate, weight loss, and clinical symptoms” value ([3]; 0.01 to 10 mg/kg/day, dose-dependent) of the same compound?
A: The value was “improvement”.

Q: What about the “number of viral genome copies” value [4] of the same compound?
A: Its value is “significantly reduced”.

Q: What about the progeny virus number [5] of the same compound?
A: Its progeny virus number is “significantly reduced”.

Q: What about the “viral genome copy number” value [5] of the same compound?
A: Its value is “significantly reduced”.

Q: And the “SI (CC50/IC50)” value [6]?
A: The value was 127.

Q: What about the “SI (CC50/IC50)” value [7] of the same compound?
A: The value was 54.

Q: What about the “SI (CC50/IC50)” value [8] of the same compound?
A: Its value is 108.

Q: And the “SI (CC50/IC50)” value [9]?
A: Its value is 32.

Q: And the “SI (CC50/IC50)” value [10]?
A: Its value is 78.

Q: What about the “SI (CC50/IC50)” value [11] of the same compound?
A: The value was 62.

Q: And the “SI (CC50/IC50)” value (SARS-CoV-2 (KCDC03); SARS-CoV-2 (KCDC03))?
A: Its value is 122.

Q: And the IC50 (SARS-CoV-2 (KCDC03); Vero E6 cells, MOI 0.01 ffu/cell, drug added after 18 hours, additional 18 hours)?
A: The IC50 was 1.71 µM.
